Marks after values point to notes of the source that are not given here.
Tested on: B16F1 mouse melanoma cells
Experiment: Intracellular melanin enhancement
Assay type: cell-based
Conditions: for Folds of Melanin Enhancement compared to control: Table E; for melanin enhancement activity, comparison in words: Tables C and E
Experimental: B16F1 mouse melanoma cells are treated with varying concentrations of actives I, II and III and other optional actives or combinations thereof at a time interval of 3 days for nine consecutive days. The intracellular melanin in both the controls and test B16F1 mouse melanoma cells is extracted by 1 N NaOH and subjected to a heat treatment at 100° C. The extracted melanin is estimated at 405 nm in a Fluostar Optima Microplate Reader.

SMILES	Folds of Melanin Enhancement compared to control (0.25 μg/ml)	Folds of Melanin Enhancement compared to control (0.5 μg/ml)	Folds of Melanin Enhancement compared to control (1 μg/ml)	Folds of Melanin Enhancement compared to control (2 μg/ml)	Folds of Melanin Enhancement compared to control (3 μg/ml)	Folds of Melanin Enhancement compared to control (5 μg/ml)	Folds of Melanin Enhancement compared to control (12 μg/ml)	melanin enhancement activity, comparison in words	toxicity to cells (Example 4)
C=C[C@@]1(C)CC(=O)[C@]2(O)[C@@]3(C)CCCC(C)(C)[C@@H]3[C@H](O)[C@H](OC(C)=O)[C@@]2(C)O1 [7β-Acetoxy-6β,9α-dihydroxy-8,13-epoxy-labd-14-en-11-one]	1 Folds	1.1 Folds	1.5* Folds	1.8* Folds	2.2* Folds	2.8* Folds	3.2* Folds	comparable to that of active 3	
C=CC1(C)CC(=O)C2C3(C)CCCC(C)(C)C3C(O)C(OC(C)=O)C2(C)O1 (stereo not drawn) [7β-Acetoxy-6β-hydroxy-8,13-epoxy-labd-14-en-11-one]	1.1 Folds	1.13 Folds	1.4* Folds	2* Folds	2.1* Folds	2.2* Folds	3* Folds	comparable to that of active 3	
COc1c2ccoc2cc2oc(=O)ccc12 [Active 5-MOP, 5-methoxy psoralen]	1.1 Folds	1.15 Folds	1.5* Folds	toxic	toxic	toxic	toxic	comparable to active III but inferior to active I	
COc1c2occc2cc2ccc(=O)oc12 [Active 8-MOP, 8-Methoxy psoralen]	1.12 Folds	1.25 Folds	1.4* Folds	toxic	toxic	toxic	toxic	comparable to active III but inferior to active I	
CC1(C)[C@@H](O[C@H]2O[C@H](C(=O)O)[C@@H](O)[C@H](O)[C@H]2O[C@@H]2O[C@H](C(=O)O)[C@@H](O)[C@H](O)[C@H]2O)CC[C@]2(C)[C@H]3C(=O)C=C4[C@@H]5C[C@@](C)(C(=O)O)CC[C@]5(C)CC[C@@]4(C)[C@]3(C)CC[C@@H]12 [Glycyrrhizin]	1.82* Folds	2.25* Folds	2.58* Folds	2.76* Folds	2.88* Folds	2.92* Folds	2.95* Folds	comparable to active III but inferior to active I	
C/C=C1\C(=O)C[C@H]2[C@@H]3CCC4=CC(=O)CC[C@]4(C)[C@H]3CC[C@]12C [Gugulsterone, Guggulsterone]	1.15 Folds	1.25 Folds	1.28 Folds	1.38 Folds	2.38* Folds	2.45* Folds	2.5* Folds	comparable to active III but inferior to active I	
CC(C)=CCOc1c2occc2cc2ccc(=O)oc12 [Imperatorin]	1.08 Folds	1.25 Folds	1.58* Folds	1.78* Folds	2.58* Folds	toxic	toxic	comparable to active III but inferior to active I	
O=C(CCCCc1ccc2c(c1)OCO2)N1CCCCC1 [tetrahydropiperine]								does not show significant melanin enhancement activity	toxic to cells

Source: patent US20080226571A1, “Compositions and methods to effect enhanced photoprotection against UV A and UV B induced damage of human skin” (priority 2007, published 2008)
